Where “and” joins values, the source holds several entries; their conditions need not be identical. Equal values may be shown once.

Assay [1] has as its system Human dermal micro-vascular endothelial cells (HDMEC). Briefly: Three-dimensional human micro-vascular endothelial sprouting assay. Type of assay: cell-based. How it is done: In Vitro Three-Dimensional Sprout Angiogenesis of Human Dermal Micro-Vascular Endothelial Cells (HDMEC) Cultured on Micro-Carrier Beads Coated with Fibrin: Confluent HDMEC (passages 5-10) were mixed with gelatin-coated Cytodex-3 beads with a ratio of 40 cells per bead. Cells and beads (150-200 beads per well for 24-well plate) were suspended with 5 ml EBM+15% normal human serum, mixed gently every hour for first 4 hours, then left to culture in a CO2 incubator overnight. The next day, 10 ml of fresh EBM+5% HS were added, and the mixture was cultured for another 3 hours. Before experiments, the culture of EC-beads was checked; then 500 ul of PBS was added to a well of 24-well plate, and 100 ul of the EC-bead culture solution was added to the PBS. The number of beads was counted, and the concentration of EC/beads was calculated.
A fibrinogen solution (1 mg/ml) in EBM medium with or without angiogenesis factors or testing factors was prepared. For positive control, 50 ng/ml VEGF+25 ng/ml FGF2 was used. EC-beads were washed with EBM medium twice, and EC-beads were added to fibrinogen solution. The experiment was done in triplicate for each condition. The EC-beads were mixed gently in fibrinogen solution, and 2.5 ul human thrombin (0.05 U/ul) was added in 1 ml fibrinogen solution; 300 ul was immediately transferred to each well of a 24-well plate. The fibrinogen solution polymerizes in 5-10 minutes; after 20 minutes, we added EBM+20% normal human serum+10 ug/ml aprotinin. The plate was incubated in a CO2 incubator. It takes about 24-48 hours for HDMEC to invade fibrin gel and form tubes.
A micro-carrier in vitro angiogenesis assay previously designed to investigate bovine pulmonary artery endothelial cell angiogenic behavior in bovine fibrin gels [Nehls and Drenckhahn, 1995a, b] was modified for the study of human microvascular endothelial cell angiogenesis in three-dimensional ECM environments (FIGS. 1 and 2). Briefly, human fibrinogen, isolated as previously described [Feng et al, 1999], was dissolved in M199 medium at a concentration of 1 mg/ml (pH 7.4) and sterilized by filtering through a 0.22 micron filter. An isotonic 1.5 mg/ml collagen solution was prepared by mixing sterile Vitrogen 100 in 5×M199 medium and distilled water. The pH was adjusted to 7.4 by 1N NaOH. In certain experiments, growth factors and ECM proteins (such as VEGF, bFGF, PDGF-BB, serum, gelatin, and fibronectin) were added to the fibrinogen or collagen solutions. About 500 EC-beads were then added to the 1 mg/ml fibrinogen or 1.5 mg/ml collagen solutions. Subsequently, EC-beads-collagen or EC-beads-fibrinogen suspension (500 EC-beads/ml) was plated onto 24-well plates at 300 ul/well. EC-bead-collagen cultures were incubated at 37° C. to form gel. The gelling of EC-bead-fibrin cultures occurred in less than 5 minutes at room temperature after the addition of thrombin to a final concentration of 0.5 U/ml. After gelation, 1 ml of fresh assay medium (EBM supplemented with 20% normal human serum for HDMEC or EBM supplemented with 10% fetal bovine serum was added to each well. The angiogenic response was monitored visually and recorded by video image capture. Specifically, capillary sprout formation was observed and recorded with a Nikon Diaphot-TMD inverted microscope (Nikon Inc.; Melville, N.Y.), equipped with an incubator housing with a Nikon NP-2 thermostat and Sheldon #2004 carbon dioxide flow mixer. The microscope was directly interfaced to a video system consisting of a Dage-MTI CCD-72S video camera and Sony 12″ PVM-122 video monitor linked to a Macintosh G3 computer. The images were captured at various magnifications using Adobe Photoshop. The effect of angiogenic factors on sprout angiogenesis was quantified visually by determining the number and percent of EC-beads with capillary sprouts. One hundred beads (five to six random low power fields) in each of triplicate wells were counted for each experimental condition. All experiments were repeated at least three times. […]

Assay [2] relates to chick chorioallantoic membrane (CAM). Briefly: Chick chorioallantoic membrane (CAM) assay of angiogenesis. Type of assay: in vivo. The settings on record: for effect on angiogenesis produced by T4: PTU applied to filter disks (1 mmol/L). How it is done: Chorioallantoic membrane (CAM) Model of Angiogenesis: In vivo Neovascularization was examined by methods described previously. 9-12 Ten-day-old chick embryos were purchased from SPAFAS (Preston, Conn.) and incubated at 37° C. with 55% relative humidity. A hypodermic needle was used to make a small hole in the shell concealing the air sac, and a second hole was made on the broad side of the egg, directly over an avascular portion of the embryonic membrane that was identified by candling. A false air sac was created beneath the second hole by the application of negative pressure at the first hole, causing the CAM to separate from the shell. A window approximately 1.0 cm 2 was cut in the shell over the dropped CAM with a small-crafts grinding wheel (Dremel, division of Emerson Electric Co.), allowing direct access to the underlying CAM. FGF2 (1 μg/mL) was used as a standard proangiogenic agent to induce new blood vessel branches on the CAM of 10-day-old embryos. Sterile disks of No. 1 filter paper (Whatman International) were pretreated with 3 mg/mL cortisone acetate and 1 mmol/L PTU and air dried under sterile conditions. Thyroid hormone, hormone analogues, FGF2 or control solvents, and inhibitors were then applied to the disks and the disks allowed to dry. The disks were then suspended in PBS and placed on growing CAMs. […] At 24 hours, the MAPK cascade inhibitor PD 98059 was also added to CAMs topically by means of the filter disks.
After incubation at 37° C. with 55% relative humidity for 3 days, the CAM tissue directly beneath each filter disk was resected from control and treated CAM samples. Tissues were washed 3× with PBS, placed in 35-mm Petri dishes (Nalge Nunc), and examined under an SV6 stereomicroscope (Zeiss) at ×50 magnification. Digital images of CAM sections exposed to filters were collected using a 3-charge-coupled device color video camera system (Toshiba) and analyzed with Image-Pro software (Media Cybernetics). The number of vessel branch points contained in a circular region equal to the area of each filter disk were counted. One image was counted in each CAM preparation, and findings from 8 to 10 CAM preparations were analyzed for each treatment condition (thyroid hormone or analogues, FGF2, FGF2 antibody, PD 98059). In addition, each experiment was performed 3 times. The resulting angiogenesis index is the mean±SEM of new branch points in each set of samples.
Ten-day-old chick embryos were purchased £tom SPAFAS (Preston, Conn.) and were incubated at 37° C. with 55% relative humidity. A hypodermic needle was used to make a small hole in the blunt end of the egg and a second hole was made on the broad side of the egg, directly over an avascular portion of the embryonic membrane. Mild suction was applied to the first hole to displace the air sac and drop the CAM away from the shell. Using a Dremel model craft drill (Dremel, Racine, Wis.), a approx. 1.0 cm^2 window was cut in the shell over the false air sac, allowing access to the CAM. Sterile disks of No. 1 filter paper (Whatman, Clifton, N.J.) were pretreated with 3 mg/ml cortisone acetate and 1 mMm propylthiouracil and air dried under sterile conditions. […] The disks were then suspended in PBS and placed on growing CAMS. After incubation for 3 days, the CAM beneath the filter disk was resected and rinsed with PBS. Each membrane was placed in a 35 mm Petri dish and examined under an SV6 stereo-microscope at 50× magnification. Digital images were captured and analyzed with Image-Pro software (Mediacybemetics). The number of vessel branch points contained in a circular region equal to the filter disk were counted. One image from each of 8-10 CAM preparations for each treatment condition was counted, and in addition each experiment was performed 3 times.
Ten-day-old chick embryos were purchased from SPAFAS (Preston, Conn.) and were incubated at 37° C. with 55% relative humidity. Chick CAM assays were performed as previously described.

Assay [3] relates to citrated human whole blood. The assay can be described thus: Thromboelastography (TEG) clot dynamics. The note with it: 25 ng TF + 2.25 mM Ca^+2 or 10 mM Ca^+2; n = 4. As to the method:
Thromboelastography (TEG) has been used in various hospital settings since its development by Hartert in 1948. The principle of TEG is based on the measurement of the physical viscoelastic characteristics of blood clot. Clot formation was monitored at 37° C. in an oscillating plastic cylindrical cuvette (“cup”) and a coaxially suspended stationary piston (“pin”) with a 1 mm clearance between the surfaces, using a computerized Thrombelastograph (TEG Model 3000, Haemoscope, Skokie, Ill.). The cup oscillates in either direction every 4.5 seconds, with a 1 second mid-cycle stationary period; resulting in a frequency of 0.1 Hz and a maximal shear rate of 0.1 per second. The pin is suspended by a torsion wire that acts as a torque transducer. […] The torque experienced by the pin (relative to the cup's oscillation) is plotted as a function of time (FIG. 58).
TEG assesses coagulation by measuring various parameters such as the time latency for the initial initiation of the clot (R), the time to initiation of a fixed clot firmness (k) of about 20 mm amplitude, the kinetic of clot development as measured by the angle (α), and the maximum amplitude of the clot (MA). The parameter A measures the width of the tracing at any point of the MA. Amplitude A in mm is a function of clot strength or elasticity. The amplitude on the TEG tracing is a measure of the rigidity of the clot; the peak strength or the shear elastic modulus attained by the clot, G, is a function of clot rigidity and can be calculated from the maximal amplitude (MA) of the TEG tracing.
The following parameters were measured from the TEG tracing: • R, the reaction time (gelation time) represents the latent period before the establishment of a 3-dimensional fibrin gel network (with measurable rigidity of about 2 mm amplitude). • Maximum Amplitude (MA, in mm), is the peak rigidity manifested by the clot. • Shear elastic modulus or clot strength (G, dynes/cm^2) is defined by:
Blood was drawn from consenting volunteers under a protocol approved by the Human Investigations Committee of William Beaumont Hospital. Using the two syringe method, samples were drawn through a 21 gauge butterfly needle and the initial 3 ml blood was discarded.

Assay [4] concerns HMVEC-d cells. Briefly: Microarray analysis (Affymetrix Human U133 Plus 2.0) of HMVEC-d cells. Format: cell-based. As to the method: Microarray Analysis Ten micrograms of total RNA from HMVEC-d cells was amplified and biotin-labeled according to GeneChip Expression Analysis Technical Manual (Affymetrix, Santa Clara, Calif.). Fragmented cRNA was hybridized with human gene chip U133 PLUS 2 (Affymetrix); chips were washed and stained with streptavidin R-phycoerythrin (Molecular Probes, Eugene, Oreg.). The chips were scanned and the data were analyzed with Microarray Suite and Data Mining Tool (Affymetrix).
To further identify possible mechanisms of tetrac inhibition of VEGF-stimulated angiogenesis, microarray analysis was performed using the Human U133 Plus 2.0 array from Affymetrix. HDMEC cells were incubated with VEGF at 50 ng/ml for 24 hours with and without Tetrac (3 uM). […] As shown in FIGS. 49A-C, Angiopoietin-like 1 (ANGPTL-1, probe set ID # 231773) expression was increased 5.9 fold following VEGF treatment.

Where [5] appears, read: hormone 0.1 uM alone, pretreated FGF2 1.25 ng/ml + VEGF […], day 3.
Setting [6] is: VEGF 50 ng/ml, 24 hours, vs untreated.

For the compound `N[C@@H](Cc1cc(I)c(Oc2ccc(O)c(I)c2)c(I)c1)C(=O)O` [T3, 3,5,3′-triiodo-L-thyronine], the stimulation of angiogenesis result in assay [1] (0.01-0.1 μM) is “significant (P<0.01) stimulation of angiogenesis”. In addition, the “Mean Tube Vessel Length (mm) ± SD” value in assay [1] (FGF2 25 ng + VEGF 50 ng, T3 20 ng, T4 23 ng, T4-agarose 23 ng, pre-treated with FGF2 1.25 ng/ml + VEGF […]) is recorded as 1.88 ± 0.21 mm. Also, in assay [1] (setting [5]), the “Mean number of Migrated cells ± SD” value turned out to be 188 ± 15 and the “Mean vessel Length (mm) ± SD” value was 0.91 ± 0.04 mm.

On to “FGF2: human recombinant FGF2, standard proangiogenic agent”, for which the “fold increase in angiogenesis index” value in assay [2] (1 μg of FGF2) is recorded as 2-3 fold. Moreover, the “fold increase in blood vessel branch formation” value in assay [2] (FGF2 1 μg/ml on filter disk, vs PBS) was 2.2 fold and 2.4 fold. Besides, the “fold increase in angiogenesis” value in assay [2] (FIG. 4 experiment with FGF2 antibody, concentration not given, 3 experiments) is 2 fold.

`[Ca+2].[Cl-].[Cl-]` [Ca^+2, Calcium Chloride]: in assay [3], the “K” value amounted to 7.0 ± 0.7 min, the “MA (mm)” value amounted to 56.5 ± 2.2 mm, the “r” value turned out to be 14.5 ± 2.5 min and the “α (angle)” value is listed as 47.3 ± 2.7 angle.

As for `CCCc1cc(=O)[nH]c(=S)[nH]1` [PTU, 6-N-propyl-2-thiouracil], the “effect on angiogenesis produced by T4” value in assay [2] was “no inhibitory effect”; in assay [2] (listed as Propylthiouracil), “has no effect”.

Turning to `O=C(O)Cc1cc(I)c(Oc2ccc(O)c(I)c2)c(I)c1` [TRIAC, triiodothyroacetic acid], the “block of the pro-angiogenic effect of T4 or T4-agarose” value in assay [2] (CAM model) is on record as 100%.

Take VEGF: in assay [4] (VEGF 50 ng/ml, 24 hours), the ANGPTL-3 expression entry is “unaffected”. Besides, in assay [4] (setting [6]), the “ANGPTL-1 expression, fold increase” value turned out to be 5.9 fold and the “ANGPTL-2 expression, fold increase” value worked out at 1.6 fold. Moreover, in assay [4] (VEGF treatment), the “MMP-15 expression, fold increase” value was 5.1 fold; the “MMP-19 expression, fold increase” value was found to be 2.9 fold; the MMP-24 expression result is listed as “slightly decreased”.

Source of the values: patent US20090022806A1, “Nanoparticle and polymer formulations for thyroid hormone analogs, antagonists and formulations and uses thereof” (priority 2006, published 2009).
